Source: ChEMBL document CHEMBL1127111, “Synthesis of non reducible inhibitors for trypanothione reductase from Trypanosoma cruzi” (Bioorg Med Chem Lett, 1993)
Active and inactive are the calls of the source. The rule behind the calls is not given here.

Assays:
[1] = test system: Glutathione reductase (Bos taurus); assay: Compound was tested for inhibitory activity against glutathione reductase from bovine intestinal mucosa; NI means no inhibition
[2] = molecular target: Trypanothione reductase (Trypanosoma cruzi, UniProt P28593); assay: Compound was tested for inhibitory activity against recombinant Trypanothione reductase from Trypanosoma cruzi
Sequence of Trypanothione reductase (P28593 whole entry): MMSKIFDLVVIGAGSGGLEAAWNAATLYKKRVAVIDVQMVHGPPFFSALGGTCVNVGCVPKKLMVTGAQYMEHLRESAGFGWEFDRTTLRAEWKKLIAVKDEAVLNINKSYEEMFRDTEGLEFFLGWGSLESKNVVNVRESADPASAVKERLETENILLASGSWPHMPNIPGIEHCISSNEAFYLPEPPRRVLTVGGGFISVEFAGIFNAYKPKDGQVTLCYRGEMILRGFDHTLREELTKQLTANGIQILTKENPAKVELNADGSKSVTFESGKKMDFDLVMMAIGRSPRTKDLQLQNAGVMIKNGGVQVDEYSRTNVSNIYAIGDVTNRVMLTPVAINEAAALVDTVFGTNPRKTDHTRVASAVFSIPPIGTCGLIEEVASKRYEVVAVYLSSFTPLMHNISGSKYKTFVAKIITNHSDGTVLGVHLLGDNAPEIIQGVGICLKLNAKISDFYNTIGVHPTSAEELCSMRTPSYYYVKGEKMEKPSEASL

Activity [1] | Ki [2] | SMILES
inactive | 43 µM | CN(C)CCCNC(=O)CNC(=O)C(CCSCC(NC(=O)OCc1ccccc1)C(=O)NCC(=O)NCCCN(C)C)NC(=O)OCc1ccccc1 (stereo unspecified)
inactive | 31 µM | CN(C)CCCNC(=O)CNC(=O)C(CSCSCC(NC(=O)OCc1ccccc1)C(=O)NCC(=O)NCCCN(C)C)NC(=O)OCc1ccccc1 (stereo unspecified)
inactive | 92 µM | CN(C)CCCNC(=O)CNC(=O)C(CSCC(NC(=O)OCc1ccccc1)C(=O)NCC(=O)NCCCN(C)C)NC(=O)OCc1ccccc1 (stereo unspecified)
